Laboratory results published in patent US12371658B2, “Three-dimensional microtissues with integrated mechanical loading” (Carnegie Mellon University, priority 2017, dated 2025).

System: cardiac MIFIs (HUES9-CMs with 10% FBs)
Experiment: side-on contractility assay of cardiac MIFIs with drug dosing (twitch force, beat frequency)
Format: cell-based, human
Details: for beat frequency relative to initial beat frequency: normalized to native beat frequency
Procedure: MIFIs were removed from wells using forceps and were transferred to a 35 mm petri dish filled with 37° C. Tyrode's solution (1.192 g HEPES, 0.203 g MgCl2, 0.403 g KCl, 7.889 g NaCl, 0.04 g NaH2PO4, 0.901 g C6H12O6, and 0.265 g CaCl2) per liter of distilled water, pH 7.4). MIFIs were anchored by placing the wide base of the strip into a slit in a PDMS block glued to the bottom of the stimulation dish. The Tyrode's bath was maintained between 30° and 37° C. using a heated stage regulated by an in house Lab VIEW program. Videos of samples were taken using a NikonTM […] DSLR camera mounted on a NikonTM SMZ1500 stereomicroscope. Samples were paced from 2-10 Hz using parallel platinum electrodes placed 2 cm apart and immersed in Tyrode's solution. Samples were stimulated with 40V using a 10 ms square pulse wave. Shorter pulse durations can also be used (e.g., 2 ms, 4 ms, 6 ms, etc.). Carbachol and isoprenaline were mixed to stock concentrations of 5 mM in 1× Tyrode's solution. […] Caffeine was dissolved directly in Tyrode's to make a stock solution of 20 mM. […] Finite element modeling of bending PDMS strips was used to create lookup tables for strips ranging in thickness from 125 to 154 μm. FIGS. 9A-D show modeling data 930 for strips 900, 910, and 920. The elastic strip (e.g., strip 112) was modeled as 3D deformable extruded solid, with extruded thickness varying between 125 and 154 μm. The elastic strip was considered as linearly elastic, isotropic and incompressible material, with Young's modulus equal to 3.09 MPa according to elastic modulus measurements. The section of the elastic strip was considered as solid homogeneous. The force-driven bending simulation was designed to mimic the experimental procedure. One static general analysis step was used where the elastic strip was deformed by application of equal contractile force in three parallel axial connectors placed in the regions where the tissue was attached during the experiment, so that the total force would equal the sum of the contractile force of the three connectors. […] Additional boundary conditions were imposed based on geometrical symmetry. […] Finally, the finite element mesh was composed of 20-node quadratic, hybrid, reduced integration brick elements. From this model, the change in tissue length could then be used to calculate the force necessary to bend the strips to these conformations. Length changes of contracting MIFIs were tracked and resulting length data was used to calculate the corresponding force based on tissue length and strip parameters (e.g., thickness, width, length, elastic modulus, and shape). […] By tracking the change in tissue length of beating MIFIs, we calculated force generated by these tissues using force lookup tables. MIFIs were removed from wells, one side of the strip was placed in a slit in a PDMS block to anchor the MIFI for side-on viewing, and the construct was submerged in Tyrode's and placed between two parallel platinum electrodes for later stimulation by assay device 1300.

[1] = Day 14, 10% FB MIFI, carbachol dosing, concentration not given
[2] = Day 14, 10% FB MIFI, isoprenaline at 500 nM and 5 μM

SMILES: Cn1c(=O)c2c(ncn2C)n(C)c1=O [caffeine]
- beat frequency relative to initial BPM (5 mM caffeine): 1.59 ×
- effect on twitch force (Day 14, 10% FB MIFI, 55 mM caffeine): minimal impact on the twitch force
- effect on spontaneous beat frequency (Day 14, 10% FB MIFI, 55 mM caffeine, after isoprenaline wash-out): increased the spontaneous beat frequency

SMILES: C[N+](C)(C)CCOC(N)=O [carbachol]
- effect on spontaneous beat frequency [1]: reduced the spontaneous beat frequency
- effect on twitch force [1]: surprisingly little impact on twitch force
- twitch force relative to twitch force of synchronous constructs (Day 14 arrhythmic construct, carbachol 500 nM, 5 μM, 50 µM, spontaneous beating): ~30%
- effect on spontaneous beat frequency of arrhythmic construct (Day 14 arrhythmic construct, increasing carbachol doses 500 nM, 5 μM, 50 µM): improvement in the spontaneous beat frequency
- fold stronger twitch contraction (arrhythmic construct, 2 Hz pacing coupled with 5 μM carbachol): 2.5 ×
- fold stronger twitch contraction (arrhythmic construct, 2 Hz pacing coupled with 50 μM carbachol): 2.8 ×
- combinatorial effect of drug treatment with electric pacing on twitch force (arrhythmic construct, carbachol 5 μM and 50 μM, 2 Hz pacing): significantly higher twitch forces

SMILES: CC(C)NCC(O)c1ccc(O)c(O)c1 (centres unmarked) [isoprenaline]
- beat frequency relative to initial beat frequency (500 nM isoprenaline): 1.27 ×
- beat frequency relative to initial beat frequency (50 μM isoprenaline): 1.48 ×
- twitch force as percent of initial twitch force (Day 14, 10% FB MIFI, 500 nM isoprenaline): ~80%
- twitch force (Day 14, 10% FB MIFI, 500 nM isoprenaline, 2 Hz paced): 2.81 μN
- twitch force (Day 14, 10% FB MIFI, 500 nM isoprenaline, spontaneous beating): 2.85 μN
- twitch force (Day 14, 10% FB MIFI, beating spontaneously in 5 M isoprenaline): ~4.0 μN
- twitch force as percent of initial twitch strength (Day 14, 10% FB MIFI, isoprenaline): ~50%
- effect on native beat frequency [2]: intended stimulatory effect
- effect on twitch force [2]: did not noticeably affect the twitch force
- ability to electrically pace the constructs (Day 14, 10% FB MIFI, isoprenaline at 500 nM and 5 μM, 2 Hz pacing): did not interrupt the ability to electrically pace the constructs
- twitch force (Day 14, 10% FB MIFI, isoprenaline, 2 Hz paced): 2.15 μN
- twitch force (Day 14, 10% FB MIFI, isoprenaline, spontaneous beating): 1.78 μN

SMILES: CNC[C@H](O)c1ccc(O)c(O)c1 [epinephrine]
- twitch force as percent of initial twitch force (5 μM epinephrine, electrical pacing 2 Hz): 85%
- twitch force as percent of initial twitch force (5 μM epinephrine, spontaneous beating): 66%
- twitch force as percent of initial twitch force (50 μM epinephrine, electrical pacing 2 Hz): 80%
- twitch force as percent of initial twitch force (50 μM epinephrine, spontaneous beating): 61%
- twitch force (Day 14, 10% FB MIFI, 500 nM epinephrine, spontaneous beating): 5.49 μN
- effect on twitch force (Day 14, 10% FB MIFI, epinephrine 500 nM to 50 μM): dose-dependent decrease in twitch force
- beat frequency relative to initial BPM (epinephrine, first of two values, dose not given): 1.42 ×
